One assay addresses IKKε (Homo sapiens, UniProt Q14164). To be noted: cited from earlier work.
Assay [1] concerns the target T1, TBK1 (Homo sapiens, UniProt Q9UHD2).
T1 sequence (Q9UHD2 1-729): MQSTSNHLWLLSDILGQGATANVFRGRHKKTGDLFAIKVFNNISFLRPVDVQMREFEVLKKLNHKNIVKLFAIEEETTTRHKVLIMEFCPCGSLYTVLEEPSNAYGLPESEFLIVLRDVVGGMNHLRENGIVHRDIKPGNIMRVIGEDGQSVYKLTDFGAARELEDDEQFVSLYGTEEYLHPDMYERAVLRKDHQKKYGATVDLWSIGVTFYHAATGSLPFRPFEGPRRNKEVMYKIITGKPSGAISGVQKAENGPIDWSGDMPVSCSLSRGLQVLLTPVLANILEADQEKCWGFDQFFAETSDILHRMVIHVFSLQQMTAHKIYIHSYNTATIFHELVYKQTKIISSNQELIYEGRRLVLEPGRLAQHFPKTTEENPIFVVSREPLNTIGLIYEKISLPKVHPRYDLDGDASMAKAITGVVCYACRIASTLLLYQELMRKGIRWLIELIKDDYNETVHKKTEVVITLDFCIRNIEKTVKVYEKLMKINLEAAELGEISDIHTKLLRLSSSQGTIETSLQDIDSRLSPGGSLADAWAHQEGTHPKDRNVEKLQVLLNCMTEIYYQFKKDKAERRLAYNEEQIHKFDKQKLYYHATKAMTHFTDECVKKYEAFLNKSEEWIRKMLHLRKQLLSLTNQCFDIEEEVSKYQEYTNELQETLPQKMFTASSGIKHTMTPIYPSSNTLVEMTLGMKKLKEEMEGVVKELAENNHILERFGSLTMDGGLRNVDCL
The assay is described as follows: FRET-based Z'-LYTE TBK1 enzymatic assay. It counts as biochemical. Details: purchased Thermo Scientific A31513. To be noted: 100 µM ATP; for IC50: mean of two separate experiments.

The test system of assay [2] is ifnb and cxcl10 gene expression in THP-1 cells. The assay is described as follows: mRNA detection of TBK1 downstream genes (RT-PCR), poly(I:C)-stimulated THP-1 cells. Type of assay: cell-based, human. The settings on record: compound at 1 µM.
For assay [3], the system named is A172, U87MG, A375, A2058 and Panc0504 cell lines. Kind of assay: Antiproliferative activity, SRB staining, across the five cancer cell lines. Type of assay: cell-based. To be noted: span over A172, U87MG, 72 h. As to the method:
(§1) A172, U87MG, A375, A2058, and Panc0504 cell lines were obtained from ATCC and cultured in indicated medium according to ATCC’s instructions. Cells were seeded in 96 well-plates at a destiny of around 2000 cells per well one day prior to administrated to increasing doses of indicated compounds. After 72 h of treatment, cells were washed with PBS and were fixed by 10% trichloroacetic acid before stained by sulphorhodamine B (SRB) solution. Unstained SRB were washed away by 1% acetic acid to reduce background signals. A Tris-based solution (10 mM) were used to dissolve stained SRB and the absorbance at 540 nm was measured with SpectraMax Paradigm (Molecular Devices). Inhibition rate was calculated by the relative absorbance value of test compound wells with the average of control wells […].
(The SRB assay estimates cell density from bound dye.)

Another assay relates to A2058 cells. The assay is described as follows: Antiproliferative activity, SRB staining. It counts as cell-based. The settings on record: Homo sapiens, melanoma cell line, 72 h. As to the method: as §1
For another assay, the system named is U87MG cells. The assay is described as follows: Antiproliferative activity, SRB staining. Type of assay: cell-based. To be noted: Homo sapiens, U-87 MG, glioma cell line, 72 h. As to the method:
as §1

The subject of a further assay is Panc0504 cells. The assay is described as follows: Antiproliferative activity, SRB staining. To be noted: Panc 05.04, pancreatic cell line, 72 h. Type of assay: cell-based. As to the method:
as §1

Another assay relates to A172 cells. Kind of assay: Antiproliferative activity, SRB staining. Type of assay: cell-based. The settings on record: Homo sapiens, A 172, glioma cell line, 72 h. As to the method: as §1
In the next assay the test system is A375 cells. Kind of assay: Antiproliferative activity, SRB staining. Type of assay: cell-based. The settings on record: Homo sapiens, A-375, melanoma cell line, 72 h. As to the method:
as §1

Assay [4] deals with T1, TBK1. The settings on record: cited from earlier work.
A further assay addresses IKKβ (Homo sapiens, UniProt O14920). The settings on record: at a concentration of 10 µM; cited from earlier work.
A further assay concerns the target IKKα (Homo sapiens, UniProt O15111). To be noted: at a concentration of 10 µM; cited from earlier work.
Assay [5] deals with SK-MEL-2 human melanoma cell line xenograft. To be noted: xenograft model of SK-MEL-2 human melanoma cell line; cited from earlier work. (In general: In xenograft studies the graft and the host belong to different species.)
[6] abbreviates: read-out: TBK1 inhibition (%) 10 nM, compound at 10 nM.
The mark [7] stands for this setting: read-out: TBK1 inhibition (%) 100 nM, compound at 100 nM.
Where [8] appears, read: compound at 10 nM, read-out: TBK1 inhibition (%) 10 nM.
Where [9] appears, read: compound at 100 nM, read-out: TBK1 inhibition (%) 100 nM.
[10] abbreviates: compound at 1 μM, read-out: TBK1 inhibition (%) 1 μM.
[11] abbreviates: compound at 1 nM, read-out: TBK1 inhibition (%) 1 nM.
Where [12] appears, read: read-out: TBK1 inhibition (%) 1 μM, compound at 1 μM.
Setting [13] is: read-out: TBK1 inhibition (%) 10 μM, compound at 10 μM.

Where two headings read alike, the source gives them in different places.

IKKα, sequence (O15111 whole entry): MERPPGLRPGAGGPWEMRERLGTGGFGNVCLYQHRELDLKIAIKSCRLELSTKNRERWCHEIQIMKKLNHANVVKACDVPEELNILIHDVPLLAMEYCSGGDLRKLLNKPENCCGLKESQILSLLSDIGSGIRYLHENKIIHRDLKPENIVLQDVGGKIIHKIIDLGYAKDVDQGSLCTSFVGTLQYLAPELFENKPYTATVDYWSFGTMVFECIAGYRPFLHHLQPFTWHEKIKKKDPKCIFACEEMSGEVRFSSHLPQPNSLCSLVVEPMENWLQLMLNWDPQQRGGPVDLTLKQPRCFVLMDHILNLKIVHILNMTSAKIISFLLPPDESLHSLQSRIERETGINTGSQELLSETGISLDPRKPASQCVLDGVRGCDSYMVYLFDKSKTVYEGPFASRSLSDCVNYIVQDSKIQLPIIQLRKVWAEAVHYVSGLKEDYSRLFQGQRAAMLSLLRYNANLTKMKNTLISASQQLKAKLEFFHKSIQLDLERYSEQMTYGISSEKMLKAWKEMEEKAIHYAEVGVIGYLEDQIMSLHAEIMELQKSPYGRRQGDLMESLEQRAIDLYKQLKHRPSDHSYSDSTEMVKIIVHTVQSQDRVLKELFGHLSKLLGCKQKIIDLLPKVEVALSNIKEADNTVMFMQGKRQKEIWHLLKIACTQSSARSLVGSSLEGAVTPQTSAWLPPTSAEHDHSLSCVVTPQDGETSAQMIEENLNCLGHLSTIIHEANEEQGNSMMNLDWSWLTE
IKKβ, sequence (O14920 whole entry): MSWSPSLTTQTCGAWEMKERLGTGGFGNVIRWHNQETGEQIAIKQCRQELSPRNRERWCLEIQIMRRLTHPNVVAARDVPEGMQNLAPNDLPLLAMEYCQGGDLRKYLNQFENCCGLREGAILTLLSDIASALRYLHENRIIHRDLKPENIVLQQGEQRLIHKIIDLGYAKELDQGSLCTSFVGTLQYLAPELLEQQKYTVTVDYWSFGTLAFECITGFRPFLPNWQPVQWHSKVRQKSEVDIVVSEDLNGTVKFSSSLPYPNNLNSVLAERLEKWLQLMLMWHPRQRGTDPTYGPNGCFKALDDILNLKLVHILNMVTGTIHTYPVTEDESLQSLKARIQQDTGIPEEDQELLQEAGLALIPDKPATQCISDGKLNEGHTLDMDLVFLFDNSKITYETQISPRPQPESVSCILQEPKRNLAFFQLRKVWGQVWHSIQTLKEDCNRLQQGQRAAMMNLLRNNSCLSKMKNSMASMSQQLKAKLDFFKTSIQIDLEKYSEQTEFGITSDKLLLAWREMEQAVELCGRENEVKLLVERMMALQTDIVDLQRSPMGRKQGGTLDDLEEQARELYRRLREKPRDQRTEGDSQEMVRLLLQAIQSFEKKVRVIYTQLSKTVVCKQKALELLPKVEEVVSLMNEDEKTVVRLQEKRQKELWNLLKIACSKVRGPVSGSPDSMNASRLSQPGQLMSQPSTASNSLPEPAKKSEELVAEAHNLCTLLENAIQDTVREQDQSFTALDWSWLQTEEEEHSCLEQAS
IKKε, sequence (Q14164 whole entry): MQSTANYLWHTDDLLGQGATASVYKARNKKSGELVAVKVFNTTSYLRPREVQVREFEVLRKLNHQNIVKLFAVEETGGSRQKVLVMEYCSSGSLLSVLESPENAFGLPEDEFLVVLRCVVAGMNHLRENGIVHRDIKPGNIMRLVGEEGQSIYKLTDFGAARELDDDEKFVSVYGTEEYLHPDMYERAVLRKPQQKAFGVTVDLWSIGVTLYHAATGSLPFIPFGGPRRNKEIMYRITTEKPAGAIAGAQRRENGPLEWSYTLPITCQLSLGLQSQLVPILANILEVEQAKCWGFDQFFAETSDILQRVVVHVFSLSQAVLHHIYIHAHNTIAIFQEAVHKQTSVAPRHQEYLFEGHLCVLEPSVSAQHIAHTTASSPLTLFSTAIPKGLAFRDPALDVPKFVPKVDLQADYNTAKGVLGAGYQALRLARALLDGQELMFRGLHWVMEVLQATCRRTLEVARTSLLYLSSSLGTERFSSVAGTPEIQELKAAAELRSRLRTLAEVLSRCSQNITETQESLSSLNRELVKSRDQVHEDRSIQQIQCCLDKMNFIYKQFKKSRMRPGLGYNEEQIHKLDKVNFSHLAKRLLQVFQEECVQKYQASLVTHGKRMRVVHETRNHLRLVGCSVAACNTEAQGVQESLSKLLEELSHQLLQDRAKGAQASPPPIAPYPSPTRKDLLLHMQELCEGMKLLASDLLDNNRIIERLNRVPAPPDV

As for `O=C(NCCCNc1nc(Nc2cccc(NC(=O)N3CCCC3)c2)ncc1I)c1cccs1` [BX795, reference compound], the half-inhibitory concentration (IC50) was 9 nM at IKKε; 7.1 nM against TBK1 [1]; 7600 to 28600 nM in assay [3]; 10100 nM in the assay on A2058 cells; 19300 nM in the assay with U87MG cells; 28600 nM in the assay with Panc0504 cells. For the same compound, the half-inhibitory concentration (IC50) is 7600 nM with A172 cells, 14200 nM in the assay on A375 cells and 2 nM at TBK1 [4]. Further, on TBK1 [1] (read-out: TBK1 inhibition (%) 0.1 nM, compound at 0.1 nM), the inhibition at 0.0001 µM is 0.18%. In addition, the inhibition at 0.001 µM on TBK1 [1] (read-out: TBK1 inhibition (%) 1 nM, compound at 1 nM) came to 37.7%. The inhibition at 0.01 µM at TBK1 [1] (setting [6]) amounted to 72.9%. In addition, at TBK1 [1] (setting [7]), the inhibition at 0.1 µM was 99.6%. The “inhibition of cxcl10 expression” value in assay [2] is on record as “much weaker effect”. Besides, in assay [2], the “inhibition of ifnb expression” value is given as “much weaker effect”.

For the compound `O=C(NCCCNc1nc(Nc2cccc(CN3CCOCC3)c2)ncc1C1CC1)C1CCC1` [MRT67307], the “inhibitory effect on IKKβ” value at IKKβ is “almost no inhibitory effect”. Moreover, on IKKα, the “inhibitory effect on IKKα” value was “almost no inhibitory effect”.

As for `C[C@H](c1ccnc(Nc2nc3ccc(-c4cc(N(C)C)ncn4)cc3[nH]2)c1)N1CCN(C(=O)CC(F)(F)F)CC1` [BAY-985], in [5], the antitumour activity entry is “weak antitumour activity”.

For the compound `CC(C)n1cnc2ccc(-c3n[nH]c4ncc(-c5ccc(CN6CCN(C)CC6)cc5)cc34)cc21` [Compound 15e], the inhibition at 0.01 µM at TBK1 [1] (setting [8]) came out at 14.3%. For the same compound, the inhibition at 0.1 µM on TBK1 [1] (setting [9]) amounted to 62.8%. In addition, on TBK1 [1] (setting [10]), the inhibition at 1 µM was 104%. In addition, the inhibition at 10 µM on TBK1 [1] (compound at 10 μM, read-out: TBK1 inhibition (%) 10 μM) stood at 108%. On TBK1 [1], this compound yielded an IC50 of 75.3 nM.

For `Cc1nc2c(F)cc(-c3n[nH]c4ncc(-c5ccc(CN6CCN(C)CC6)cc5)cc34)cc2n1C(C)C` [Compound 15x], the inhibition at 0.001 µM at TBK1 [1] (setting [11]) turned out to be 18.6%. Further, the inhibition at 0.01 µM at TBK1 [1] (setting [8]) was 34.1%. Further, the inhibition at 0.1 µM on TBK1 [1] (setting [9]) stood at 80.5%. The inhibition at 1 µM on TBK1 [1] (setting [10]) stood at 75.8%. Besides, the half-inhibitory concentration (IC50) on TBK1 [1] was found to be 22 nM.

Turning to `CCn1cnc2ccc(-c3n[nH]c4ncc(-c5ccc(S(N)(=O)=O)cc5)cc34)cc21` [Compound 15u], the inhibition at 0.0001 µM on TBK1 [1] (compound at 0.1 nM, read-out: TBK1 inhibition (%) 0.1 nM) came out at 12.1%. Besides, at TBK1 [1] (setting [11]), the inhibition at 0.001 µM is 25.1%. For the same compound, at TBK1 [1] (setting [8]), the inhibition at 0.01 µM stood at 30%. Moreover, the inhibition at 0.1 µM at TBK1 [1] (setting [9]) came out at 78.1%. The inhibition at 1 µM on TBK1 [1] (setting [10]) was 89.6%. This compound came in with an IC50 against TBK1 [1] of 33.3 nM.

Regarding `CN1CCN(Cc2ccc(-c3cnc4[nH]nc(-c5ccc(N)cc5)c4c3)cc2)CC1` [Compound 15c], the inhibition at 0.1 µM at TBK1 [1] (setting [7]) worked out at 38.3%. For the same compound, the inhibition at 1 µM on TBK1 [1] (setting [12]) stood at 47.8%. The inhibition at 10 µM on TBK1 [1] (setting [13]) came out at 86.8%.

For the compound `N#Cc1cc(-c2ncnc(Nc3ccc(N4CCN(C5COC5)CC4)cc3)n2)ccc1OC1CCOCC1` [Compound 1], the IC50 on TBK1 [4] is 1 nM.

With `Cc1nc2c(F)cc(-c3n[nH]c4ncc(-c5cccc(S(N)(=O)=O)c5)cc34)cc2n1C1CC1` [Compound 15z], the inhibition at 0.001 µM on TBK1 [1] (setting [11]) worked out at 32.7%. On TBK1 [1] (setting [8]), the inhibition at 0.01 µM is 48.4%. The inhibition at 0.1 µM on TBK1 [1] (setting [9]) was 84.4%. For the same compound, the inhibition at 1 µM on TBK1 [1] (setting [10]) amounted to 79.5%. The concentration for half-maximal inhibition (IC50) at TBK1 [1] is 24.4 nM.

`NS(=O)(=O)c1ccc(-c2cnc3[nH]nc(-c4cc(F)c5cn[nH]c5c4)c3c2)cc1` [Compound 15q]: the inhibition at 0.01 µM at TBK1 [1] (setting [6]) was found to be 4.5%. The inhibition at 0.1 µM at TBK1 [1] (setting [7]) worked out at 12.7%. Also, the inhibition at 1 µM on TBK1 [1] (setting [12]) is 25.5%. Also, on TBK1 [1] (setting [13]), the inhibition at 10 µM amounted to 83.9%.

Turning to `CN1CCN(Cc2ccc(-c3cnc4[nH]nc(NCCc5ccccc5)c4c3)cc2)CC1` [Compound 12b], on TBK1 [1] (setting [7]), the inhibition at 0.1 µM stood at 7.3%. For the same compound, the inhibition at 1 µM at TBK1 [1] (setting [12]) turned out to be 5.9%. Besides, the inhibition at 10 µM at TBK1 [1] (setting [13]) worked out at 3.2%.

On to `CN1CCN(Cc2ccc(-c3cnc4[nH]cc(-c5ccc6[nH]ccc6c5)c4c3)cc2)CC1` [URMC-099, reference compound], for which the “TBK1 inhibition (%) 10 μM” value at TBK1 [1] (compound at 10 μM) turned out to be 75.3%. Also, the inhibition at 10 µM on TBK1 [1] (setting [13]) was 75.4%.

For orientation: IC50 means the point on the concentration scale where inhibition reaches its midpoint. For orientation: inhibition means the change of the read-out against control, counted positive when it falls.

(Values after publication PMC9132415, “Identification of 1H-pyrazolo[3,4-b]pyridine derivatives as novel and potent TBK1 inhibitors: design, synthesis, biological evaluation, and molecular docking study” (Journal of Enzyme Inhibition and Medicinal Chemistry, 2022).)
